Measured values from the supplement of paper PMC11208160.

assay: recombinant barcode read abundance after kanamycin selection (control-corrected) (log10(CPM+1)); higher = more efficient recombination; sequences stand for … in AGTGCAGAGAAAATCGGCCAGTTTTCTCTGCCTGCAGTCCGCATGCCGT…AGATTTATGCAGCGGACTGCCTTTCTCCCAAAGTGATAAACCGGACAGTATCATGGACCGGTTTTCCCGGTAATCCGTATTTGCAAGGTTGGTTTCACT; site = the 11-nt target
How it was run: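 Targets were screened in pooled form in E. coli against IS621 bridge RNA target-binding loops. Recombination efficiency is based on barcode counts at recombinant junctions in counts per million, averaged and corrected for the control. Numbers are shown as log10(CPM+1), with duplicate plates on chloramphenicol/ampicillin LB agar (control) or chloramphenicol/ampicillin/kanamycin with 0.1 mM IPTG.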
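Further: IS621 recombinase and bridge RNA in Escherichia coli cells.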

Row | Sequence | recombinant barcode read abundance (log10)
1 | GCGAAGTCTTGGGTTCTAACCTGTTGCTT (site GCGAAGTCTAA) | 1.15
2 | GCGAATCCTTGGGTTCTAACCTGTTGCCT (site GCGAATCCTAG) | 0.845
3 | GCGAATCCTTGGGTTCTAACCTGTTGCCT (site GCGCATCCTAG) | 0.213
4 | GCGAATCCTTGGGTTCTAACCTGTTGCCT (site GCGGATCCTAG) | 0.069
5 | GCGAATCCTTGGGTTCTAACCTGTTGCCT (site GCGTATCCTAG) | 0.099
6 | GCGACTCCTTGGGTTCTAACCTGTTGCAT (site GCGACTCCTAT) | 0.857
7 | GCGACTCCTTGGGTTCTAACCTGTTGCAT (site GCGCCTCCTAT) | 0.118
8 | GCGACTCCTTGGGTTCTAACCTGTTGCAT (site GCGGCTCCTAT) | 0.14
9 | GCGACTCCTTGGGTTCTAACCTGTTGCAT (site GCGTCTCCTAT) | 0.0718
10 | GCGACTCCTTGGGTTCTAACCTGTTGCTA (site GAGACTCCTTA) | 0.739
11 | GCGACTCCTTGGGTTCTAACCTGTTGCTA (site GCGACTCCTTA) | 0.619
12 | GCGAGCTCTTGGGTTCTAACCTGTTGCCT (site GCGAGCTCTAG) | 1.6
13 | GCGAGCTCTTGGGTTCTAACCTGTTGCCT (site GCGCGTTCTAG) | 0.291
14 | GCGATGTCTTGGGTTCTAACCTGTTGCCT (site GAGATGTCTAG) | 0.183
15 | GCGATGTCTTGGGTTCTAACCTGTTGCCT (site GCGATGTCTAG) | 1.33
16 | GCGATGTCTTGGGTTCTAACCTGTTGCCT (site GGGATGTCTAG) | 0.514
17 | GCGATGTCTTGGGTTCTAACCTGTTGCCT (site GTGATGTCTAG) | 0.116
18 | GCGCGGCCTTGGGTTCTAACCTGTTGCTT (site GCACGCCCTAA) | 0.0904
19 | GCGCGGCCTTGGGTTCTAACCTGTTGCTT (site GCGCGGCCTAA) | 0.492
20 | GCGCTAACTTGGGTTCTAACCTGTTGCCT (site GCGCTAACTAG) | 1.05
21 | GCGCTAACTTGGGTTCTAACCTGTTGCCT (site TCGCTAACTAG) | 0.169
22 | GCGCTCCCTTGGGTTCTAACCTGTTGCCT (site GCACTCCCTAG) | 1.25
23 | GCGCTCCCTTGGGTTCTAACCTGTTGCCT (site GCCCTCCCTAG) | 0.388
24 | GCGCTCCCTTGGGTTCTAACCTGTTGCCT (site GCGCTCCCTAG) | 0.926
25 | GCGCTCCCTTGGGTTCTAACCTGTTGCCT (site GCTCTCCCTAG) | 0.145
26 | GCGGACTCTTGGGTTCTAACCTGTTGCCA (site GCGGACTCTTG) | 2.09

Row | Sequence | recombinant barcode read abundance (log10)
27 | GCGGACTCTTGGGTTCTAACCTGTTGCCA (site GCGTACTCTAG) | 0.0401
28 | GCGGAGTCTTGGGTTCTAACCTGTTGCGT (site GCGGAGTCTAC) | 1.45
29 | GCGGAGTCTTGGGTTCTAACCTGTTGCGT (site GCTAAGTCTAC) | 0.0484
30 | GCGGATCCTTGGGTTCTAACCTGTTGCCT (site GCGAATCCTAG) | 0.824
31 | GCGGATCCTTGGGTTCTAACCTGTTGCCT (site GCGCATCCTAG) | 0.0111
32 | GCGGATCCTTGGGTTCTAACCTGTTGCCT (site GCGGATCCTAG) | 2.11
33 | GCGGATCCTTGGGTTCTAACCTGTTGCCT (site GCGTATCCTAG) | 1.05
34 | GCGGCGACTTGGGTTCTAACCTGTTGCCT (site GCAGCGACTAG) | 0.291
35 | GCGGCGACTTGGGTTCTAACCTGTTGCCT (site GCCGCGACTAG) | 0.162
36 | GCGGCGACTTGGGTTCTAACCTGTTGCCT (site GCGGCGACTAG) | 0.891
37 | GCGGCGACTTGGGTTCTAACCTGTTGCCT (site GCTGCGACTAG) | 0.0436
38 | GCGGGATCTTGGGTTCTAACCTGTTGCCT (site ACGGGATCTAG) | 0.765
39 | GCGGGATCTTGGGTTCTAACCTGTTGCCT (site CCGGGATCTAG) | 0.258
40 | GCGGGATCTTGGGTTCTAACCTGTTGCCT (site GCGGGATCTAG) | 1.06
41 | GCGGGATCTTGGGTTCTAACCTGTTGCCT (site TCGGGATCTAG) | 0.174
42 | GCGGGGTCTTGGGTTCTAACCTGTTGCTT (site GCAGGGTCTAA) | 2.65
43 | GCGGGGTCTTGGGTTCTAACCTGTTGCTT (site GCCGGGTCTAA) | 0.124
44 | GCGGGGTCTTGGGTTCTAACCTGTTGCTT (site GCGGGGTCTAA) | 2.2
45 | GCGGGGTCTTGGGTTCTAACCTGTTGCTT (site GCTGGGTCTAA) | 0.783
46 | GCGGGTCCTTGGGTTCTAACCTGTTGCCT (site GCAGGTCCTAG) | 2.24
47 | GCGGGTCCTTGGGTTCTAACCTGTTGCCT (site GCCGGTCCTAG) | 0.213
48 | GCGGGTCCTTGGGTTCTAACCTGTTGCCT (site GCGGGTCCTAG) | 2.15
49 | GCGGGTCCTTGGGTTCTAACCTGTTGCCT (site GCTGGTCCTAG) | 0.532
50 | GCGTCACCTTGGGTTCTAACCTGTTGCCT (site ACGTCACCTAG) | 0.0445
51 | GCGTCACCTTGGGTTCTAACCTGTTGCCT (site CCGTCACCTAG) | 0.0376
52 | GCGTCACCTTGGGTTCTAACCTGTTGCCT (site GCGTCACCTAG) | 0.394

Row | Sequence | recombinant barcode read abundance (log10)
53 | GCGTCACCTTGGGTTCTAACCTGTTGCCT (site TCGTCACCTAG) | 0.382
54 | GCGTGAGCTTGGGTTCTAACCTGTTGCCT (site GCATGAGCTAG) | 1.07
55 | GCGTGAGCTTGGGTTCTAACCTGTTGCCT (site GCCTGAGCTAG) | 0.151
56 | GCGTGAGCTTGGGTTCTAACCTGTTGCCT (site GCGTGAGCTAG) | 0.676
57 | GCGTGAGCTTGGGTTCTAACCTGTTGCCT (site GCTTGAGCTAG) | 0.0594
58 | GCGTGTCCTTGGGTTCTAACCTGTTGCCA (site CCGTGTCCTCG) | 0.0431
59 | GCGTGTCCTTGGGTTCTAACCTGTTGCCA (site GCGTGTCCTTG) | 0.335
60 | GCGTTGCCTTGGGTTCTAACCTGTTGCCT (site GAGTTGCCTAG) | 0.073
61 | GCGTTGCCTTGGGTTCTAACCTGTTGCCT (site GCGTTGCCTAG) | 0.213
62 | GCGTTGCCTTGGGTTCTAACCTGTTGCCT (site GGGTTGCCTAG) | 0.0557
63 | GCGTTGCCTTGGGTTCTAACCTGTTGCCT (site GTGTTGCCTAG) | 0.0893
64 | GCTAGTCCTTGGGTTCTAACCTGTTGCTG (site GCTAGTCCTAC) | 0.537
65 | GCTAGTCCTTGGGTTCTAACCTGTTGCTG (site GCTAGTCCTCA) | 0.83
66 | GCTCAGGCTTGGGTTCTAACCTGTTGCCT (site GCTCAGACTAG) | 0.142
67 | GCTCAGGCTTGGGTTCTAACCTGTTGCCT (site GCTCAGCCTAG) | 0.114
68 | GCTCAGGCTTGGGTTCTAACCTGTTGCCT (site GCTCAGGCTAG) | 0.216
69 | GCTCAGGCTTGGGTTCTAACCTGTTGCCT (site GCTCAGTCTAG) | 0.202
70 | GCTCGTCCTTGGGTTCTAACCTGTTGCAT (site GCTCGTCCTAT) | 1.03
71 | GCTCGTCCTTGGGTTCTAACCTGTTGCAT (site GCTGGACCTAT) | 0.0399
72 | GCTCTCCCTTGGGTTCTAACCTGTTGCCT (site GCACTCCCTAG) | 0.0891
73 | GCTCTCCCTTGGGTTCTAACCTGTTGCCT (site GCCCTCCCTAG) | 0.388
74 | GCTCTCCCTTGGGTTCTAACCTGTTGCCT (site GCGCTCCCTAG) | 0.253
75 | GCTCTCCCTTGGGTTCTAACCTGTTGCCT (site GCTCTCCCTAG) | 0.305
76 | GCTGGACCTTGGGTTCTAACCTGTTGCCT (site ACTGGACCTAA) | 0.179
77 | GCTGGACCTTGGGTTCTAACCTGTTGCCT (site GCTGGACCTAG) | 2.15
